Measured values taken from ChEMBL document CHEMBL3046079, “Synthesis, herbicidal activity, and mode of action of IR 5790” (J Agric Food Chem, 2001).

What was measured:
[1] = tested on: Beta vulgaris; assay: Phytotoxicity against Beta vulgaris assessed as injury at 150 g/ha applied as pre-emergent treatment at 24 hr post-sowing measured after 28 days relative to control; type: organism-based; settings: in vivo, other, 672 h
[2] = tested on: Sorghum bicolor; assay: Pre-emergence herbicidal activity against Sorghum bicolor assessed as injury at 50 g/ha applied at 24 hr post-sowing measured after 28 days relative to control; type: functional
[3] = tested on: Phalaris arundinacea; assay: Pre-emergence herbicidal activity against Phalaris arundinacea assessed as injury at 50 g/ha applied at 24 hr post-sowing measured after 28 days relative to control; type: functional
[4] = tested on: Calystegia sepium; assay: Post-emergence herbicidal activity against Calystegia sepium assessed as injury at 150 g/ha applied at 15 days post-sowing measured after 15 days relative to control; type: functional
[5] = tested on: Panicum dichotomiflorum; assay: Post-emergence herbicidal activity against Panicum dichotomiflorum assessed as injury at 150 g/ha applied at 15 days post-sowing measured after 15 days relative to control; type: functional
[6] = tested on: Stellaria media; assay: Post-emergence herbicidal activity against Stellaria media assessed as injury at 150 g/ha applied at 15 days post-sowing measured after 15 days relative to control; type: functional
[7] = tested on: Persicaria maculosa; assay: Post-emergence herbicidal activity against Persicaria maculosa assessed as injury at 150 g/ha applied at 15 days post-sowing measured after 15 days relative to control; type: functional
[8] = tested on: Abutilon theophrasti; assay: Post-emergence herbicidal activity against Abutilon theophrasti (velvetleaf) assessed as injury at 50 g/ha applied at 15 days post-sowing measured after 15 days relative to control; type: functional
[9] = tested on: Triticum aestivum; assay: Phytotoxicity against Triticum aestivum (wheat) assessed as injury at 150 g/ha applied as post-emergent treatment at 15 days post-sowing measured after 15 days relative to control; type: organism-based; settings: in vivo, other, 360 h
[10] = tested on: Panicum dichotomiflorum; assay: Post-emergence herbicidal activity against Panicum dichotomiflorum assessed as injury at 15 g/ha applied at 15 days post-sowing measured after 15 days relative to control; type: functional
[11] = tested on: Calystegia sepium; assay: Post-emergence herbicidal activity against Calystegia sepium assessed as injury at 15 g/ha applied at 15 days post-sowing measured after 15 days relative to control; type: functional
[12] = tested on: Chenopodium album; assay: Post-emergence herbicidal activity against Chenopodium album assessed as injury at 15 g/ha applied at 15 days post-sowing measured after 15 days relative to control; type: functional
[13] = tested on: Alopecurus myosuroides; assay: Pre-emergence herbicidal activity against Alopecurus myosuroides assessed as injury at 150 g/ha applied at 24 hr post-sowing measured after 28 days relative to control; type: functional
[14] = tested on: Veronica persica; assay: Pre-emergence herbicidal activity against Veronica persica assessed as injury at 150 g/ha applied at 24 hr post-sowing measured after 28 days relative to control; type: functional
[15] = tested on: Solanum nigrum; assay: Pre-emergence herbicidal activity against Solanum nigrum (black nightshade) assessed as injury at 150 g/ha applied at 24 hr post-sowing measured after 28 days relative to control; type: functional
[16] = tested on: Capsella bursa-pastoris; assay: Pre-emergence herbicidal activity against Capsella bursa-pastoris assessed as injury at 150 g/ha applied at 24 hr post-sowing measured after 28 days relative to control; type: functional
[17] = tested on: Ammi majus; assay: Post-emergence herbicidal activity against Amni maius assessed as injury at 15 g/ha applied at 15 days post-sowing measured after 15 days relative to control; type: functional
[18] = tested on: Setaria viridis; assay: Post-emergence herbicidal activity against Setaria viridis (green foxtail) assessed as injury at 50 g/ha applied at 15 days post-sowing measured after 15 days relative to control; type: functional
[19] = tested on: Sida spinosa; assay: Post-emergence herbicidal activity against Sida spinosa assessed as injury at 50 g/ha applied at 15 days post-sowing measured after 15 days relative to control; type: functional
[20] = tested on: Portulaca oleracea; assay: Post-emergence herbicidal activity against Portulaca oleracea assessed as injury at 50 g/ha applied at 15 days post-sowing measured after 15 days relative to control; type: functional

**Q.** Which Activity [1] does the source give for C#CCOc1cc(-n2nc(C(C)(C)C)sc2=O)c(Cl)cc1Cl here?
**A.** The Activity was 10%.

**Q.** What about the Activity [2] of the same compound?
**A.** The Activity was 0%.

**Q.** What about the Activity [3] of the same compound?
**A.** Its Activity is 0%.

**Q.** And the Activity [4]?
**A.** Its Activity is 90%.

**Q.** And the Activity [5]?
**A.** The Activity was 90%.

**Q.** And the Activity [6]?
**A.** The Activity was 0%.

**Q.** And the Activity [7]?
**A.** Its Activity is 90%.

**Q.** And the Activity [8]?
**A.** Its Activity is 70%.

**Q.** What about the Activity [9] of the same compound?
**A.** The Activity was 50%.

**Q.** And the Activity [10]?
**A.** Its Activity is 0%.

**Q.** And the Activity [11]?
**A.** Its Activity is 50%.

**Q.** What about the Activity [12] of the same compound?
**A.** Its Activity is 70%.

**Q.** What about the Activity [13] of the same compound?
**A.** Its Activity is 70%.

**Q.** And the Activity [14]?
**A.** The Activity was 50%.

**Q.** And the Activity [15]?
**A.** The Activity was 70%.

**Q.** And the Activity [16]?
**A.** Its Activity is 90%.

**Q.** What about the Activity [17] of the same compound?
**A.** The Activity was 0%.

**Q.** And the Activity [18]?
**A.** The Activity was 10%.

**Q.** And the Activity [19]?
**A.** The Activity was 50%.

**Q.** And the Activity [20]?
**A.** The Activity was 90%.
